We go through two compounds from patent EP4596574A1, “GLP-1/GCG/GIP TRIPLE-RECEPTOR AGONIST AND USE THEREOF” (Sunshine Lake Pharma Co., Ltd., priority 2022, dated 2024).

Each structure is given as a SMILES string. Marks after values point to notes of the source that are not given here.

Series [1] can be described thus: Glucose tolerance assessment in normal C57BL/6 mice (Example 5). Format: in vivo. The conditions noted are these: 3 nmol/kg s.c. single dose, 24 h after administration. An outline of the steps: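 Normal C57BL/6 mice given a single dose, fasted 12 h starting 12 h post-dose, then challenged with 2 g/kg glucose i.p. Tail-vein glucose measured at baseline and 15, 30, 60, 90 min. AUC0~90min calculated from the glucose–time curve per dose group.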

Series [2] is described as follows: Pharmacokinetic study in rats, single subcutaneous injection. The conditions noted are these: male, Sprague Dawley, in vivo, sc, rat, 50 nmol/kg single subcutaneous injection, plasma. How it is done:
The pharmacokinetic study of each polypeptide compound prepared in Example 1 was conducted using male Sprague Dawley rats. There were 3 male rats in each group. […] The dose was 50 nmol/kg, and a single subcutaneous injection was given (see Table 3 for specific peptide compounds). After administration, plasma was collected on the specified days and time points, and the concentration of each peptide compound in the plasma was detected by LC-MS/MS method. The pharmacokinetic parameters were obtained based on the concentration data, which were used to describe the pharmacokinetic properties of the peptide in rats after subcutaneous injection. Table 3: Summary of pharmacokinetic parameters of some triple-target peptides in rats

The nature of series [3]: Glucose tolerance assessment in normal C57BL/6 mice (Example 4). Format: in vivo. The conditions noted are these: 3 nmol/kg s.c. single dose, 24 h after administration. The method, boiled down:
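Twelve hours after a single administration, mice were fasted 12 h and then given 2 g/kg glucose i.p. Tail-vein blood glucose was measured at baseline and at 15, 30, 60 and 90 min. AUC0–90min was calculated per dose group at 24 h post-dose.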

The mark [4] stands for this setting: 15 min after 2 g/kg glucose i.p.
Where [5] appears, read: 30 min after 2 g/kg glucose i.p.
Where [6] appears, read: 60 min after 2 g/kg glucose i.p.
Where [7] appears, read: 90 min after 2 g/kg glucose i.p.
[8] abbreviates: basal before 2 g/kg glucose i.p.
The mark [9] stands for this setting: blood glucose AUC, 2 g/kg glucose i.p.

One may read the AUC(0-inf) as the area under the concentration-time curve extrapolated to infinity. Broadly, the AUC(0-t) is exposure summed from dosing to a finite time, without extrapolation to infinity. Low values mean less exposure, high ones more exposure. One may read the Cmax as the maximum level reached in the sampled fluid or tissue. The term Tmax denotes the time from dosing to the highest level.

As to `CC[C@H](C)[C@H](NC(=O)[C@H](Cc1ccccc1)NC(=O)[C@H](C)NC(=O)[C@H](CCCNC(=N)N)NC(=O)[C@H](CCC(N)=O)NC(=O)[C@H](CCCNC(=N)N)NC(=O)[C@H](CCCCNC(=O)COCCOCCNC(=O)CC[C@H](NC(=O)CCCCCCCCCCCCCCCCCCC(=O)O)C(=O)O)NC(=O)[C@H](CCC(=O)O)NC(=O)[C@H](CC(=O)O)NC(=O)[C@H](CC(C)C)NC(=O)[C@H](CC(C)C)NC(=O)[C@@H](NC(=O)[C@H](CO)NC(=O)[C@H](Cc1ccc(O)cc1)NC(=O)[C@H](CC(=O)O)NC(=O)[C@H](CO)NC(=O)[C@@H](NC(=O)[C@](C)(Cc1ccccc1F)NC(=O)[C@@H](NC(=O)CNC(=O)[C@H](CCC(N)=O)NC(=O)C(C)(C)NC(=O)[C@@H](N)Cc1ccc(O)cc1)[C@@H](C)O)[C@@H](C)O)[C@@H](C)CC)C(=O)N[C@@H](CCC(=O)O)C(=O)N[C@@H](Cc1ccc(O)cc1)C(=O)N[C@@H](CC(C)C)C(=O)N[C@@H](CC(C)C)C(=O)N[C@@H](C)C(=O)NCC(=O)NCC(=O)N1CCC[C@H]1C(=O)N[C@@H](CO)C(=O)N[C@@H](CO)C(=O)NCC(=O)N[C@@H](C)C(=O)N1CCC[C@H]1C(=O)N1CCC[C@H]1C(=O)N1CCC[C@H]1C(=O)N[C@@H](CO)C(=O)O` [HEC-PT86], the “Blood glucose level (mM) 15 min” value in series [1] (setting [4]) came out at 13.2 ± 1.4 mM. In addition, the “Blood glucose level (mM) 30 min” value in series [1] (setting [5]) was 10.3 ± 1.9 mM. Also, the “Blood glucose level (mM) 60 min” value in series [1] (setting [6]) amounted to 8.8 ± 1.0 mM. Further, the “Blood glucose level (mM) 90 min” value in series [1] (setting [7]) was determined as 7.0 ± 0.8 mM. In series [1] (setting [8]), the “Blood glucose level (mM) 0 min” value was determined as 3.9 ± 0.2 mM. Also, the AUC0-90 min in series [1] (setting [9]) is listed as 827.3±70.3^a.
Regarding `CC[C@H](C)[C@H](NC(=O)[C@H](Cc1ccccc1)NC(=O)[C@H](CCC(=O)O)NC(=O)[C@H](CCCNC(=N)N)NC(=O)[C@H](CCC(N)=O)NC(=O)[C@H](CCCNC(=N)N)NC(=O)[C@H](CCCCNC(=O)COCCOCCNC(=O)CC[C@H](NC(=O)CCCCCCCCCCCCCCCCC(=O)O)C(=O)O)NC(=O)[C@H](CCC(=O)O)NC(=O)[C@H](CC(=O)O)NC(=O)[C@H](CC(C)C)NC(=O)[C@H](CC(C)C)NC(=O)[C@@H](NC(=O)[C@H](CO)NC(=O)[C@H](Cc1ccc(O)cc1)NC(=O)[C@H](CC(=O)O)NC(=O)[C@H](CO)NC(=O)[C@@H](NC(=O)[C@](C)(Cc1ccccc1F)NC(=O)[C@@H](NC(=O)CNC(=O)[C@H](Cc1c[nH]cn1)NC(=O)C(C)(C)NC(=O)[C@@H](N)Cc1ccc(O)cc1)[C@@H](C)O)[C@@H](C)O)[C@@H](C)CC)C(=O)N[C@@H](CCC(=O)O)C(=O)N[C@@H](Cc1c[nH]c2ccccc12)C(=O)N[C@@H](CC(C)C)C(=O)N[C@@H](CC(C)C)C(=O)N[C@@H](C)C(=O)NCC(=O)NCC(=O)N1CCC[C@H]1C(=O)N[C@@H](CO)C(=O)N[C@@H](CO)C(=O)NCC(=O)N[C@@H](C)C(=O)N1CCC[C@H]1C(=O)N1CCC[C@H]1C(=O)N1CCC[C@H]1C(=O)N[C@@H](CO)C(=O)O` [HEC-PT77], in series [2], the AUC(0-inf) came to 22200 ± 3840 ng·h/mL, the AUC(0-t) was determined as 22000 ± 3870 ng·h/mL and the concentration peaked (Cmax) at 596 ± 213 ng/mL. For the same compound, the half-life in series [2] (read-out: T1/2 (converted)) is 11 ± 1.6 h. In series [2] (read-out: Tmax), the time of peak concentration (Tmax) amounted to 15 ± 11 h. Moreover, in series [3] (setting [4]), the “Blood glucose level (mM) 15 min” value was found to be 12.6 ± 3.3 mM. In series [3] (setting [5]), the “Blood glucose level (mM) 30 min” value came to 9.6 ± 3.4 mM. In series [3] (setting [6]), the “Blood glucose level (mM) 60 min” value stood at 8.5 ± 2.7 mM. Further, in series [3] (setting [7]), the “Blood glucose level (mM) 90 min” value was determined as 6.9 ± 1.9 mM. In addition, the “Blood glucose level (mM) 0 min” value in series [3] (setting [8]) was 4.0 ± 0.5 mM. The AUC0-90 min in series [3] (setting [9]) is on record as 776.9±227.6^a.
